Drawing on patent US11548888B2, “KRas G12C inhibitors” (Mirati Therapeutics, Inc., priority 2019, dated 2023), this text covers IC50 for 37 compounds.

T1 sequence (P01116 1-188 isoform P01116-2 G12C): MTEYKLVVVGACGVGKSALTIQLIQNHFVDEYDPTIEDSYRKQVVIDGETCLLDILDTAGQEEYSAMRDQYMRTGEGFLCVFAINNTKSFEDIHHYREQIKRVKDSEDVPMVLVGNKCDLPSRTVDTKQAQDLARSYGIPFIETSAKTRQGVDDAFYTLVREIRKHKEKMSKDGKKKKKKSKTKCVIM

The experiment has as its target T1, KRas G12C (Homo sapiens, UniProt P01116, G12C).
T1 construct: NCI-H358 cells (ATCC CRL-5807) express KRas G12C
The experiment is described as follows: Inhibition of KRas G12C-dependent cell growth: Phospho-ERK in NCI-H358 cells. It is filed as cell-based. The settings on record: NCI-H358 cells expressing KRas G12C; Phospho-ERK (Thr202/Tyr204) normalized to GAPDH; 3 hours compound; 4 parameter fit. The procedure, abridged:
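Phospho-ERK read-out in KRas G12C-expressing NCI-H358 cells after 3 h compound treatment (final DMSO 0.5%), by in-cell infrared immunodetection. Signal normalized to GAPDH and to DMSO controls. 4-parameter curve fit gave IC50.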
In turn, `C=C(F)C(=O)N1CCN(c2nc(OC[C@@H]3CCCN3C)nc3c(F)c(-c4cncc5cccc(Cl)c45)ncc23)C[C@@H]1CC#N` [Example 54, 2-((S)-4-(7-(5-chloroisoquinolin-4-yl)-8-fluoro-2-(((S)-1-methylpyrrolidin-2-yl)methoxy)pyrido[4,3-d]pyrimidin-4-yl)-1-(2-fluoroacryloyl)piperazin-2-yl)acetonitrile] yielded a half-inhibitory concentration (IC50) of 14 nM.

In turn, `C=CC(=O)N1CCN(c2ncnc3c(F)c(-c4c(N)c(Cl)cc(Cl)c4F)ncc23)C[C@@H]1CC#N` [Example 243] yielded a half-inhibitory concentration (IC50) of 1200 nM.

For the compound `C=CC(=O)N1CCN(c2nc(C)nc3c(F)c(-c4cccc5cccc(Cl)c45)ncc23)CC1` [Example 153], the IC50 worked out at 10000 nM.

Compound `C=CC(=O)N1CCN(c2nc(OC[C@@H]3CCCN3C)nc3c(F)c(-c4cccc5ccc(F)c(Cl)c45)ncc23)C[C@@H]1C` [Example 141] showed a half-maximal inhibitory concentration (IC50) of 50 nM.

`C=CC(=O)N1CCN(c2nc(OC[C@@H]3CCCN3C)nc3c(F)c(-c4cccc5ccc(F)c(Cl)c45)ncc23)[C@H](C)C1` [Example 155] yielded an IC50 of 585 nM.

Turning to `C=C(F)C(=O)N1CCN(c2ncnc3c(F)c(-c4cccc5cccc(C)c45)ncc23)C[C@@H]1CC#N` [Example 111], the IC50 amounted to 3920 nM.

For `C=C(F)C(=O)N1CCN(c2nc(OC[C@@H]3CCCN3C)nc3c(F)c(-c4c(C)ccc5cnn(C)c45)ncc23)C[C@@H]1CC#N` [Example 99], 444 nM corresponded to half-maximal inhibition (IC50).

On to `C=C(F)C(=O)N1CCN(c2nc(OC[C@@H]3C[C@@H](F)CN3C)nc3c(F)c(-c4cccc5ccc(F)c(Cl)c45)ncc23)C[C@@H]1CC#N` [Example 126], for which the IC50 was 15 nM.

As to `C=C(F)C(=O)N1CCN(c2nc(OCCNS(C)(=O)=O)nc3c(F)c(-c4cccc5ccc(F)c(Cl)c45)ncc23)C[C@@H]1CC#N` [Example 120], half-maximal inhibition (IC50) required 976 nM.

For `C=C(F)C(=O)N1CCN(c2nc(OC[C@@H]3[C@@H]4C[C@@H]4CN3C)nc3c(F)c(-c4cccc5ccc(F)c(Cl)c45)ncc23)C[C@@H]1CC#N` [Example 192], it took 38 nM to reach half-maximal inhibition (IC50).

In turn, `C=CC(=O)N1CC[C@@H]2[C@H]1CN2c1nc(OC[C@@H]2C[C@@H](F)CN2C)nc2c(F)c(-c3cccc4ccc(F)c(Cl)c34)ncc12` [Example 264] displayed a half-inhibitory concentration (IC50) of 20 nM.

`C#Cc1cccc2cccc(-c3ncc4c(N5CCN(C(=O)C(=C)F)[C@@H](CC#N)C5)nc(OC[C@@H]5CCCN5C)nc4c3F)c12` [Example 212, 2-((S)-4-(7-(8-ethynylnaphthalen-1-yl)-8-fluoro-2-(((S)-1-methylpyrrolidin-2-yl)methoxy)pyrido[4,3-d]pyrimidin-4-yl)-1-(2-fluoroacryloyl)piperazin-2-yl)acetonitrile] showed a 50% inhibitory concentration (IC50) of 7 nM.

Turning to `C=C(F)C(=O)N1CCN(c2nc(OC3CCN(C4CCOCC4)CC3)nc3c(F)c(-c4cccc5cccc(Cl)c45)ncc23)C[C@@H]1CC#N` [Example 64], 376 nM corresponded to half-maximal inhibition (IC50).

Compound `CO[C@@H]1C[C@@H](COc2nc(N3CCN(C(=O)/C=C/CF)[C@@H](CC#N)C3)c3cnc(-c4cccc5cccc(Cl)c45)c(F)c3n2)N(C)C1` [Example 27, 2-[(2S)-4-[7-(8-chloro-1-naphthyl)-8-fluoro-2-[[(2S,4R)-4-methoxy-1-methyl-pyrrolidin-2-yl]methoxy]pyrido[4,3-d]pyrimidin-4-yl]-1-[(E)-4-fluorobut-2-enoyl]piperazin-2-yl]acetonitrile] had an IC50 of 30 nM.

`C=C(F)C(=O)N1CCN(c2nc(OC[C@@H]3CCN(C)C3)nc3c(F)c(-c4cccc5ccc(F)c(Cl)c45)ncc23)C[C@@H]1CC#N` [Example 169] displayed a half-maximal inhibitory concentration (IC50) of 60 nM.

Turning to `C=CC(=O)N1CCN(c2nc(OC[C@@H]3CCCN3C)nc3c(F)c(-c4cccc5cccc(C)c45)ncc23)C[C@@H]1CC#N` [Example 10, 2-[(2S)-4-[8-fluoro-7-(8-methyl-1-naphthyl)-2-[[(2S)-1-methylpyrrolidin-2-yl]methoxy]pyrido[4,3-d]pyrimidin-4-yl]-1-prop-2-enoyl-piperazin-2-yl]acetonitrile], half-maximal inhibition (IC50) required 2 nM.

The compound `C=CC(=O)N1CCN(c2ncnc3cc(-c4cc(O)cc5ccccc45)ncc23)CC1` [Example 1, 1-(4-(7-(3-hydroxynaphthalen-1-yl)pyrido[4,3-d]pyrimidin-4-yl)piperazin-1-yl)prop-2-en-1-one] gave an IC50 of 1920 nM.

`C=CC(=O)N1CCN(c2nc(N3CCC3)nc3c(F)c(-c4cccc5ccc(F)c(Cl)c45)ncc23)C[C@@H]1CC#N` [Example 187]: the half-inhibitory concentration (IC50) came out at 74 nM.

Consider `C=C(F)C(=O)N1CCN(c2nc(OC[C@@H]3CCCN3C)nc3c(C#N)c(-c4cccc5cccc(C)c45)ncc23)C[C@@H]1CC#N` [Example 58, 4-[(3S)-3-(cyanomethyl)-4-(2-fluoroprop-2-enoyl)piperazin-1-yl]-7-(8-methyl-1-naphthyl)-2-[[(2S)-1-methylpyrrolidin-2-yl]methoxy]pyrido[4,3-d]pyrimidine-8-carbonitrile], for which the IC50 is 330 nM.

Compound `C=C(F)C(=O)N1CCN(c2nc(OC[C@@H]3C[C@@H](F)CN3C)nc3c(F)c(-c4cncc5cccc(C)c45)ncc23)C[C@@H]1CC#N` [Example 50, 2-[(2S)-4-[8-fluoro-2-[[(2S,4R)-4-fluoro-1-methyl-pyrrolidin-2-yl]methoxy]-7-(5-methyl-4-isoquinolyl)pyrido[4,3-d]pyrimidin-4-yl]-1-(2-fluoroprop-2-enoyl)piperazin-2-yl]acetonitrile] yielded an IC50 of 53 nM.

With `C#Cc1c(F)ccc2cccc(-c3ncc4c(N5C[C@@H]6[C@H]5CCN6C(=O)C=C)ncnc4c3F)c12` [Example 290, 1-((1R, 5R)-6-(7-(8-ethynyl-7-fluoronaphthalen-1-yl)-8-fluoropyrido[4,3-d]pyrimidin-4-yl)-2,6-diazabicyclo[3.2.0]heptan-2-yl)prop-2-en-1-one], the IC50 was 30 nM.

Take `C=CC(=O)N1CCN(c2nc(OC[C@@H]3CCCN3C)nc3c(F)c(-c4c(C)ccc5[nH]ncc45)ncc23)[C@@H](C)C1` [Example 79]: half-maximal inhibition (IC50) required 675 nM.

In turn, `C=CC(=O)N1CCC2(C1)CN(c1ncnc3c(F)c(-c4cccc5ccc(F)c(Cl)c45)ncc13)C2` [Example 138] came in with an IC50 of 7170 nM.

For `CO[C@@H]1C[C@@H](COc2nc(N3CCN(C(=O)/C=C/CF)[C@@H](CC#N)C3)c3cnc(-c4cncc5cccc(C)c45)c(F)c3n2)N(C)C1` [Example 36, 2-[(2S)-1-[(E)-4-fluorobut-2-enoyl]-4-[8-fluoro-2-[[(2S,4R)-4-methoxy-1-methyl-pyrrolidin-2-yl]methoxy]-7-(5-methyl-4-isoquinolyl)pyrido[4,3-d]pyrimidin-4-yl]piperazin-2-yl]acetonitrile], it took 44 nM to reach half-maximal inhibition (IC50).

The compound `C=CC(=O)N1CCN(c2nc(OC[C@@H]3CCCN3C)nc3c(F)c(-c4cncc5cccc(Cl)c45)ncc23)CC1` [Example 93] came in with an IC50 of 366 nM.

Compound `C=CC(=O)N1CC2(CCN(c3nc(OC4CCN(C5CCOCC5)CC4)nc4c(F)c(-c5cccc6cccc(Cl)c56)ncc34)CC2)C1` [Example 74] registered an IC50 of 1350 nM.

In turn, `C=C(F)C(=O)N1CCN(c2nc(OCCCN3C[C@@H]4C[C@H]3CO4)nc3c(F)c(-c4cccc5ccc(F)c(Cl)c45)ncc23)C[C@@H]1CC#N` [Example 129] had an IC50 of 73 nM.

Take `C=C(F)C(=O)N1CCN(c2nc(OC[C@@H]3CCCN3C)nc3c(F)c(-c4cccc5cccc(Cl)c45)ncc23)[C@H](C)C1` [Example 76]: the IC50 was found to be 3000 nM.

The compound `C=C(F)C(=O)N1CCN(c2nc(OC[C@@H]3C[C@@H](F)CN3C)nc3c(F)c(-c4cccc5cccc(Cl)c45)ncc23)C[C@@H]1CC#N` [Example 42, 2-[(2S)-4-[7-(8-chloro-1-naphthyl)-8-fluoro-2-[[(2S,4R)-4-fluoro-1-methyl-pyrrolidin-2-yl]methoxy]pyrido[4,3-d]pyrimidin-4-yl]-1-(2-fluoroprop-2-enoyl)piperazin-2-yl]acetonitrile] showed an IC50 of 18 nM.

In turn, `C=C(F)C(=O)N1CCN(c2nc(OCC34CCCN3C[C@H](F)C4)nc3c(F)c(-c4cccc5ccc(F)c(Cl)c45)ncc23)C[C@@H]1CC#N` (stereo partly shown) [Example 181] displayed a half-inhibitory concentration (IC50) of 4 nM.

`C#Cc1c(F)ccc2cccc(-c3ncc4c(N5C[C@@H]6[C@H]5CCN6C(=O)C(=C)F)ncnc4c3F)c12` [Example 299, 1-((1R,5R)-6-(7-(8-ethynyl-7-fluoronaphthalen-1-yl)-8-fluoropyrido[4,3-d]pyrimidin-4-yl)-2,6-diazabicyclo[3.2.0]heptan-2-yl)-2-fluoroprop-2-en-1-one] displayed an IC50 of 1330 nM.

Consider `C=CC(=O)N1CCN(c2nc(OC[C@@H]3CCCN3C)nc3cc(-c4cccc5ccccc45)ncc23)C[C@@H]1CC#N` [Example 5, 2-[(2S)-4-[2-[[(2S)-1-methylpyrrolidin-2-yl]methoxy]-7-(1-naphthyl)pyrido[4,3-d]pyrimidin-4-yl]-1-prop-2-enoyl-piperazin-2-yl]acetonitrile], for which the IC50 came out at 45 nM.

The compound `C=CC(=O)N1CCN(c2nc(OC[C@@H]3CCCN3C)nc3c(F)c(-c4cncc5cccc(Cl)c45)ncc23)C[C@@H]1CC#N` [Example 20, 2-[(2S)-4-[7-(5-chloro-4-isoquinolyl)-8-fluoro-2-[[(2S)-1-methylpyrrolidin-2-yl]methoxy]pyrido[4,3-d]pyrimidin-4-yl]-1-prop-2-enoyl-piperazin-2-yl]acetonitrile] showed a concentration for half-maximal inhibition (IC50) of 3 nM.

Regarding `C=C(F)C(=O)N1CCN(c2nc(OC[C@@H]3CCCN3CC(F)F)nc3c(F)c(-c4cccc5ccc(F)c(Cl)c45)ncc23)C[C@@H]1CC#N` [Example 185], half-maximal inhibition (IC50) was put at 145 nM.

`C=C(F)C(=O)N1CCN(c2nc(OCC3CN(C)CCO3)nc3c(F)c(-c4cccc5cccc(Cl)c45)ncc23)C[C@@H]1CC#N` (stereo partly shown) [Example 65] showed a concentration for half-maximal inhibition (IC50) of 36 nM.

For the compound `C=C(F)C(=O)N1CCN(c2nc(OC[C@H]3[C@H](F)CCN3C)nc3c(F)c(-c4cccc5ccc(F)c(Cl)c45)ncc23)C[C@@H]1CC#N` [Example 168], the IC50 came out at 65 nM.

As for `C=CC(=O)N1CCN(c2ncnc3c(F)c(-c4cccc5ccc(F)c(Cl)c45)ncc23)CC12CC2` [Example 234], the midpoint of inhibition, the IC50, lay at 10000 nM.
